{"source": "patent US11597721B2", "about": "“Heterocyclic compounds comprising pyridine useful as modulators of IL-12, IL-23 and/or IFNα responses” (BRISTOL-MYERS SQUIBB COMPANY, priority 2018, dated 2023)", "note": "pIC50: −log10 of the molar value.", "data": [{"system": "IFNα-Induced STAT Phosphorylation", "assay": "IFNα-Induced STAT Phosphorylation in Human Whole Blood", "type": "cell-based", "settings": "Homo sapiens, 1 h compound incubation, 1000 U/mL recombinant human IFNα A/D for 15 min, pSTAT5 in CD3 positive population, read-out: LE Human WB IFNα-Induced Stat Phosph. (IC50)", "from_the_text": "IFNα-Induced STAT Phosphorylation in Human Whole Blood\nThe amount of pSTAT5 expression was quantitated by median fluorescence intensity after gating on the CD3 positive population.", "values": [{"compound": "[2H]C([2H])([2H])NC(=O)c1nnc(Nc2cc(C(C)(C)O)ccn2)cc1Nc1nccc(-c2noc(C)n2)c1OC", "note": "[Example 80, 6-{[4-(2-hydroxypropan-2-yl)pyridin-2-yl]amino}-4-{[3-methoxy-4-(5-methyl-1,2,4-oxadiazol-3-yl)pyridin-2-yl]amino}-N—(^2H3)methylpyridazine-3-carboxamide]", "pIC50": 6.22}, {"compound": "[2H]C([2H])([2H])NC(=O)c1nnc(NC(=O)CC)cc1Nc1nccc(-c2noc(C)n2)c1OC", "note": "[Example 81, 4-{[3-methoxy-4-(5-methyl-1,2,4-oxadiazol-3-yl)pyridin-2-yl]amino}-N—(^2H3)methyl-6-propanamidopyridazine-3-carboxamide]", "pIC50": 6.66}, {"compound": "[2H]C([2H])([2H])NC(=O)c1nnc(Nc2ccc(C(C)(C)O)cn2)cc1Nc1nccc(-c2noc(C)n2)c1OC", "note": "[Example 82, 6-{[5-(2-hydroxypropan-2-yl)pyridin-2-yl]amino}-4-{[3-methoxy-4-(5-methyl-1,2,4-oxadiazol-3-yl)pyridin-2-yl]amino}-N—(^2H3)methylpyridazine-3-carboxamide]", "pIC50": 7.52}, {"compound": "[2H]C([2H])([2H])NC(=O)c1cnc(NC(=O)C2CC2)cc1Nc1nccc(-c2ccccn2)c1OC", "note": "[Example 84, 6-(Cyclopropanecarboxamido)-4-((3′-methoxy-[2,4′-bipyridin]-2′-yl)amino)-N-(methyl-d3)nicotinamide]", "pIC50": 7.10}, {"compound": "[2H]C([2H])([2H])NC(=O)c1cnc(NC(=O)C2CC2)cc1Nc1nccc(-c2ccc(NC(=O)C3CC3)cn2)c1OC", "note": "[Example 85, 6-(Cyclopropanecarboxamido)-4-((5-(cyclopropanecarboxamido)-3′-methoxy-[2,4′-bipyridin]-2′-yl)amino)-N-(methyl-d3)nicotinamide]", "pIC50": 6.82}, {"compound": "[2H]C([2H])([2H])NC(=O)c1cnc(NC(=O)C2CC2)cc1Nc1nccc(-c2ccc(Cl)cn2)c1OC", "note": "[Example 86, 4-((5-Chloro-3′-methoxy-[2,4′-bipyridin]-2′-yl)amino)-6-(cyclopropanecarboxamido)-N-(methyl-d3)nicotinamide]", "pIC50": 6.32}, {"compound": "[2H]C([2H])([2H])NC(=O)c1nnc(NC(=O)C2CC2)cc1Nc1nccc(-c2cnc(C(=O)N(C)C)cn2)c1OC", "note": "[Example 87, 6-(Cyclopropanecarboxamido)-4-((4-(5-(dimethylcarbamoyl)pyrazin-2-yl)-3-methoxypyridin-2-yl)amino)-N-(methyl-d3)pyridazine-3-carboxamide]", "pIC50": 7.52}, {"compound": "[2H]C([2H])([2H])NC(=O)c1nnc(NC(=O)C2CC2)cc1Nc1nccc(-c2cnc(C(=O)N(C)CC)cn2)c1OC", "note": "[Example 88, 6-(Cyclopropanecarboxamido)-4-((4-(5-(ethyl(methyl)carbamoyl)pyrazin-2-yl)-3-methoxypyridin-2-yl)amino)-N-(methyl-d3)pyridazine-3-carboxamide]", "pIC50": 6.89}, {"compound": "[2H]C([2H])([2H])NC(=O)c1nnc(NC(=O)CC2CC2)cc1Nc1nccc(-c2cnc(C(=O)N(C)C)cn2)c1OC", "note": "[Example 89, 6-(2-Cyclopropylacetamido)-4-((4-(5-(dimethylcarbamoyl)pyrazin-2-yl)-3-methoxypyridin-2-yl)amino)-N-(methyl-d3)pyridazine-3-carboxamide]", "pIC50": 6.68}, {"compound": "[2H]C([2H])([2H])NC(=O)c1nnc(Nc2ccn(C)n2)cc1Nc1nccc(-c2cnc(C(=O)N(C)C)cn2)c1OC", "note": "[Example 90, 4-((4-(5-(Dimethylcarbamoyl)pyrazin-2-yl)-3-methoxypyridin-2-yl)amino)-N-(methyl-d3)-6-((1-methyl-1H-pyrazol-3-yl)amino)pyridazine-3-carboxamide]", "pIC50": 7.22}, {"compound": "[2H]C([2H])([2H])NC(=O)c1nnc(Nc2cc(C)n(C)n2)cc1Nc1nccc(-c2cnc(C(=O)N(C)C)cn2)c1OC", "note": "[Example 91, 6-((1,5-Dimethyl-1H-pyrazol-3-yl)amino)-4-((4-(5-(dimethylcarbamoyl)pyrazin-2-yl)-3-methoxypyridin-2-yl)amino)-N-(methyl-d3)pyridazine-3-carboxamide]", "pIC50": 7.05}, {"compound": "[2H]C([2H])([2H])NC(=O)c1nnc(Nc2cc(Cl)n(C)n2)cc1Nc1nccc(-c2cnc(C(=O)N(C)C)cn2)c1OC", "note": "[Example 92, 6-((5-Chloro-1-methyl-1H-pyrazol-3-yl)amino)-4-((4-(5-(dimethylcarbamoyl)pyrazin-2-yl)-3-methoxypyridin-2-yl)amino)-N-(methyl-d3)pyridazine-3-carboxamide]", "pIC50": 7.05}, {"compound": "[2H]C([2H])([2H])NC(=O)c1cnc(Nc2cc(C)ccn2)cc1Nc1nccc(-c2nnn(C)n2)c1OC", "note": "[Example 103, 4-((3-methoxy-4-(2-methyl-2H-tetrazol-5-yl)pyridin-2-yl)amino)-N-(methyl-d3)-6-((4-methylpyridin-2-yl)amino)nicotinamide]", "pIC50": 6.55}, {"compound": "[2H]C([2H])([2H])NC(=O)c1cnc(NC(=O)CC)cc1Nc1nccc(-c2nnn(C)n2)c1OC", "note": "[Example 105, 4-{[3-methoxy-4-(2-methyl-2H-1,2,3,4-tetrazol-5-yl)pyridin-2-yl]amino}-N—(^2H3)methyl-6-propanamidopyridine-3-carboxamide]", "pIC50": 7.05}, {"compound": "[2H]C([2H])([2H])NC(=O)c1cnc(Nc2cc(C#N)ccn2)cc1Nc1nccc(-c2nnn(C)n2)c1OC", "note": "[Example 106, 6-[(4-cyanopyridin-2-yl)amino]-4-{[3-methoxy-4-(2-methyl-2H-1,2,3,4-tetrazol-5-yl)pyridin-2-yl]amino}-N—(^2H3)methylpyridine-3-carboxamide]", "pIC50": 7.15}]}]}
